From ChEMBL document CHEMBL1201862, “PubChem BioAssay data set” (2004)
The source made the active and inactive calls. Where a SMILES comes first, the peptide text is derived from it. [ ]: non-standard residue; d: D form. The star is where a group is joined. Ac5c = NC1(C(=O)O)CCCC1; Cbz = O=C(OCc1ccccc1)*

What was measured:
[1] = microbe, parasite or virus in culture; format: functional; conditions: Mycobacterium tuberculosis
[2] = molecular target: T1, RNA-binding protein pos-1 (Caenorhabditis elegans, UniProt G5EF15); assay: disruptors of C. elegans POS-1 RNA interaction – biochemical, fluorescence polarization, dose response (AID 1964);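 note: purified POS-1 fused to maltose binding protein made in E. coli; potency of compounds blocking POS-1 binding to fluorescent RNA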
T1 sequence (G5EF15 whole entry): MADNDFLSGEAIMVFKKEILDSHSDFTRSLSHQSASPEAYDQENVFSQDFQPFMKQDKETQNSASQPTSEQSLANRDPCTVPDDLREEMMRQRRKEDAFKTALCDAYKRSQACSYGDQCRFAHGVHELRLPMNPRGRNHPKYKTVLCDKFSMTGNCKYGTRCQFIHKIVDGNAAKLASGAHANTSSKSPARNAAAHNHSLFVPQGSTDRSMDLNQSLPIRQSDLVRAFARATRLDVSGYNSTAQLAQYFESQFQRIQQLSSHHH

[3] = molecular target: T2, Zinc finger protein mex-5 (Caenorhabditis elegans, UniProt Q9XUB2); assay: potency of MEX-5 RNA-binding blockers – biochemical, C. elegans, fluorescence polarization, dose response (AID 1960)
T2 sequence (Q9XUB2 whole entry): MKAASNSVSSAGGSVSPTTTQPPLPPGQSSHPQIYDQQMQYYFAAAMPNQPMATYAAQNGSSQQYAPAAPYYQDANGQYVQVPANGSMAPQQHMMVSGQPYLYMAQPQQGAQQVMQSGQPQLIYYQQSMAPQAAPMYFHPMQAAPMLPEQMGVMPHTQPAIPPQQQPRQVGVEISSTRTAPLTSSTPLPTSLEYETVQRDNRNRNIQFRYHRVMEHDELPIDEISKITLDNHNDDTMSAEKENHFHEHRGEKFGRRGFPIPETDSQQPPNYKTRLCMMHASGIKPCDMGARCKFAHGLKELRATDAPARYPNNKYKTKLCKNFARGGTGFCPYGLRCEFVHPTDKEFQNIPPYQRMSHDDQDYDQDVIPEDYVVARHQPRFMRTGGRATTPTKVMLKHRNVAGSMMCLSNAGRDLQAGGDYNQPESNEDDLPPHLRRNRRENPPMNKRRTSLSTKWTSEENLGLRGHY

Prothrombin = Prothrombin (Homo sapiens, UniProt P00734); assay: Thrombin 1536 HTS Dose Response Confirmation. [Related pubchem assays: 1046 (Thrombin 1536 HTS; hits were confirmed in this assay)]; format: functional
[4] = molecular target: FAD-linked sulfhydryl oxidase ALR (Homo sapiens, UniProt P55789); assay: ALR-catalysed DTT oxidation blockers – biochemical, H2O2 detection, luminescence, cherry-pick, dose response (AID 493248)
Protein skinhead-1 = molecular target: T3, Protein skinhead-1 (Caenorhabditis elegans, UniProt P34707); format: functional
T3 sequence (P34707 whole entry): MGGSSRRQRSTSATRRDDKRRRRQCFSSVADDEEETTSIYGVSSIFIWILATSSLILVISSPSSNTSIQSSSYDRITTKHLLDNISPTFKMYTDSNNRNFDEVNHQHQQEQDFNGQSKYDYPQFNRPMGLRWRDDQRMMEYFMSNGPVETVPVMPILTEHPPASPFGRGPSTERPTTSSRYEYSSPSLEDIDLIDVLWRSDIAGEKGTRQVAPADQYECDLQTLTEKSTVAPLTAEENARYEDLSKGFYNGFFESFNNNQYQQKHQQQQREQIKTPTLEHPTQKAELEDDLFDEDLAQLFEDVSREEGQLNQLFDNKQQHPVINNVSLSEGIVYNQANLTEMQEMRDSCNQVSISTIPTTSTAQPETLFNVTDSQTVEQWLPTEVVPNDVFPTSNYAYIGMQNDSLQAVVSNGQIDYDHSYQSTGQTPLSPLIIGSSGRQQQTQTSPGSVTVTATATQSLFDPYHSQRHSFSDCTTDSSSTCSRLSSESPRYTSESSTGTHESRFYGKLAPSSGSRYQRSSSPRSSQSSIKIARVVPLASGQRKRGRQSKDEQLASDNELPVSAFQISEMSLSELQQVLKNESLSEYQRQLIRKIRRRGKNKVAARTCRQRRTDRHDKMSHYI

Nonstructural protein 1 = Nonstructural protein 1 (Influenza A virus, UniProt Q194T2); format: functional, Influenza A virus (A/California/07/2009(H1N1))
[5] = molecular target: DNA dC->dU-editing enzyme APOBEC-3A (Homo sapiens, UniProt P31941); assay: Dose Response confirmation of small molecule APOBEC3A DNA Deaminase Inhibitors via a fluorescence-based single-stranded DNA deaminase assay. [Related pubchem assays (depositor defined):AID493011, AID493024]; format: functional
[6] = molecular target: DNA dC->dU-editing enzyme APOBEC-3G (Homo sapiens, UniProt Q9HC16); format: functional;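 note: Dose-response counterscreen measuring inhibition of APOBEC3G DNA deaminase activity, run while confirming APOBEC3A inhibitors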
[7] = molecular target: T4, Heat shock factor protein 1 (Mus musculus, UniProt P38532); assay: enhancement of HSF1-driven luciferase signal – cell-based, NIH3T3, luminescence, dose retest, confirmation (AID 435004); format: functional;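 note: stress induced by proteasome inhibitor MG132 added 30 min after compound; luciferase reporter driven by HSF1 response element in NIH3T3 cells; actives raise luminescence as potentiators of the MG132 stress response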
T4 sequence (P38532 whole entry): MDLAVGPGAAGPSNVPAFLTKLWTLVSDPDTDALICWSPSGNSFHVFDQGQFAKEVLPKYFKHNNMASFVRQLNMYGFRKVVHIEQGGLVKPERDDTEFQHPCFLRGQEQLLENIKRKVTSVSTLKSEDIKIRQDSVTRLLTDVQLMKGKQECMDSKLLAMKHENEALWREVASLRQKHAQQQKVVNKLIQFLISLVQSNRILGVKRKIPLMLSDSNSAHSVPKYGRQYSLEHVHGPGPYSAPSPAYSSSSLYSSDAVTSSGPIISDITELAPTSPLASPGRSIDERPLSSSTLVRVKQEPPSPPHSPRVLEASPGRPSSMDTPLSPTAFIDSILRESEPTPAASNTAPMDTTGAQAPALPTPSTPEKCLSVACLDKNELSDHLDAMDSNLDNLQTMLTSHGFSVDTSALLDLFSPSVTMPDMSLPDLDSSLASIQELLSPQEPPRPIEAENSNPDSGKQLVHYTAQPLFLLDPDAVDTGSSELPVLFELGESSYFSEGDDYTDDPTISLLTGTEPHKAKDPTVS

Leucine aminopeptidase = molecular target: T5, Leucine aminopeptidase (Plasmodium falciparum 3D7, UniProt Q8IL11); assay: P. falciparum M17LAP inhibitors, primary screen, biochemical, fluorogenic H-Leu-NHMec substrate, 1536-well (AID 1619); format: functional
T5 sequence (Q8IL11 whole entry): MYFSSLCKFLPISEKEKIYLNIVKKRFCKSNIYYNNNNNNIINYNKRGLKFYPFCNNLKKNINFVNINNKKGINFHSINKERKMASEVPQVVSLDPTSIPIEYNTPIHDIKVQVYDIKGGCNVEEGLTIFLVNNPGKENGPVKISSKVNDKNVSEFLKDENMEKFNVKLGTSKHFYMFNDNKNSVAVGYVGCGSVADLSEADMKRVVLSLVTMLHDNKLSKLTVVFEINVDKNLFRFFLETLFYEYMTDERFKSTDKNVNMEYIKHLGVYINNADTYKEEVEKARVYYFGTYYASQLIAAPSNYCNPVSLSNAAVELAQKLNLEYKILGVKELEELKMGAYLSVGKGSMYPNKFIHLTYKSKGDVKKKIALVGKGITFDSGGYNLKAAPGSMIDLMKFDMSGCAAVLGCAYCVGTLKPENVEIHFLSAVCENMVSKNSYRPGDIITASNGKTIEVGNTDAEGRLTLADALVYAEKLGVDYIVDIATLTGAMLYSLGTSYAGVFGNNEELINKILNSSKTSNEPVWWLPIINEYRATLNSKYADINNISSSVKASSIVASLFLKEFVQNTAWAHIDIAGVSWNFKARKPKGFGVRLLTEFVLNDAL

[8] = HIV-1 AD8 envelope cell-cell fusion blockers – cherry-pick, dose response (AID 652062); format: functional, cell-based;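 note: luciferase signal from cell-cell fusion driven by HIV-1 clade B AD8 Env; potency is for inhibitors of fusion seen as a drop in luminescence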
[9] = off-target signal loss in HeLa-CEM21 co-culture – HeLa F-luc CTL cells, cherry-picked, counter-screen for HIV-1 Env fusion inhibitor project, dose response (AID 652040); format: functional, cell-based;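 note: potency for signal decrease marking cytotoxic or nonspecific inhibition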
[10] = non-specific 3'UTR reporter inhibition in Clone20-Shn3RL – cell-based, Renilla luciferase, cherry-picked, counter-screen for Shn3 inhibitor project, dose response (AID 624133); format: functional
Large T antigen = Large T antigen (Simian virus 40, UniProt P03070); format: functional, Betapolyomavirus macacae;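 note: Confirmatory-stage PubChem screen for compounds that inhibit SV40 T antigen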
[11] = reduction of Shn3 3'UTR-driven luciferase in osteoblasts – cell-based, Clone20 osteoblasts, firefly luciferase, cherry-picked, dose response (AID 624132); format: functional;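 note: firefly luciferase luminescence from reporter carrying the Shn3 3'UTR in osteoblasts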

Chain of DNA dC->dU-editing enzyme APOBEC-3G (Q9HC16 whole entry): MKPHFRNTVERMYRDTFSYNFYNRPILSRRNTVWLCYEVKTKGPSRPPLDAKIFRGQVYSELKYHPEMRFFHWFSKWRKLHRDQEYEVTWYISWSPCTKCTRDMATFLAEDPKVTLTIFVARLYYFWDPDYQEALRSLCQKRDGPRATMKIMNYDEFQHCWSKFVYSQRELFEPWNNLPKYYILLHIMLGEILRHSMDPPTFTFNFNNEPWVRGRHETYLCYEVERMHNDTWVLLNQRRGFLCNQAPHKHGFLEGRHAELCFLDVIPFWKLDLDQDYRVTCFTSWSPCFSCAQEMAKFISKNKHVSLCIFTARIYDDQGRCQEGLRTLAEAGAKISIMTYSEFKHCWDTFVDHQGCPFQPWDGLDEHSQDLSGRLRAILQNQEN
Chain of DNA dC->dU-editing enzyme APOBEC-3A (P31941 whole entry): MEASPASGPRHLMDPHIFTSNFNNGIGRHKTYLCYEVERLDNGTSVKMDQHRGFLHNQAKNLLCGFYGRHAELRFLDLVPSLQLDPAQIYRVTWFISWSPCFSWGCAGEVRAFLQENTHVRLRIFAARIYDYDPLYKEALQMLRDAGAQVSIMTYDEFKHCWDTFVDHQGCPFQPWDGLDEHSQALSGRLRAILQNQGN
Chain of FAD-linked sulfhydryl oxidase ALR (P55789 whole entry): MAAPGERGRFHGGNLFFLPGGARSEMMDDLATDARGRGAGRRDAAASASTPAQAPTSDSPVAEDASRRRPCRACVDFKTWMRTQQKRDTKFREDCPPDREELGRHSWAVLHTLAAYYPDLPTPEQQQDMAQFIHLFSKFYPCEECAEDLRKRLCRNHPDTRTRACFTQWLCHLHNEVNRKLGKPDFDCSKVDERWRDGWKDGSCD
Chain of Nonstructural protein 1 (Q194T2 whole entry): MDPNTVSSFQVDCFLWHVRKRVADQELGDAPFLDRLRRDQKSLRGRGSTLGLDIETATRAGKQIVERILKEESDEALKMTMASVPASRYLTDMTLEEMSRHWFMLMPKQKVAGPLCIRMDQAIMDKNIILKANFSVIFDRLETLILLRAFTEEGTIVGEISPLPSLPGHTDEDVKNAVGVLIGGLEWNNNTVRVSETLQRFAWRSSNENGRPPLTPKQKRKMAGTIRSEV
Chain of Large T antigen (P03070 whole entry): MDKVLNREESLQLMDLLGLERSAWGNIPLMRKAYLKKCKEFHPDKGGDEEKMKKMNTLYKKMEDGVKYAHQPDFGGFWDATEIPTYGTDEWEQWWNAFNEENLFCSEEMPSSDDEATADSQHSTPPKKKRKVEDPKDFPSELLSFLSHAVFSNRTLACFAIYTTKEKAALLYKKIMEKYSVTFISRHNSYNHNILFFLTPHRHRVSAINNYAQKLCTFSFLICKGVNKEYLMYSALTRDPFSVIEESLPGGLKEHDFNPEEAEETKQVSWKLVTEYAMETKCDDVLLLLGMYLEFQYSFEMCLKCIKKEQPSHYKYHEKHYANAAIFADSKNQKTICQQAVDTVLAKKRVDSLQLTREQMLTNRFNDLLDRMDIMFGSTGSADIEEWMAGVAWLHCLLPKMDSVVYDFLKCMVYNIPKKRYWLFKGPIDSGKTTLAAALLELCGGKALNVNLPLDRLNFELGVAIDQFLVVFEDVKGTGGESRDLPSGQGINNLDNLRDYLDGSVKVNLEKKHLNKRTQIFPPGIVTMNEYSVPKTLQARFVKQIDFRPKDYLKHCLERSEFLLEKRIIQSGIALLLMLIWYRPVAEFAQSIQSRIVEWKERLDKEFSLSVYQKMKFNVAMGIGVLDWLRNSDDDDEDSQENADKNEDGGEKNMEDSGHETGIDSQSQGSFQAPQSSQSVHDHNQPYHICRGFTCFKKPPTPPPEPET

N=c1c(C(=O)NC2CCCCC2)cc2c(=O)n3ccccc3nc2n1Cc1ccc(F)cc1
CC50 [1]: > 40 µM (active) | EC50 [2]: > 300 µM (not active) | EC50 [3]: 13.3 µM (active)

COc1cc(S(=O)(=O)N2CCOCC2)ccc1NC(=O)COC(=O)c1ccccn1
IC50 (Prothrombin): 0.545 µM (active)

Cc1nc2cc(N)ccc2n1C1CCCCC1
EC50 [2]: > 300 µM (not active) | AC50 [4]: 0.277 µM (active) | EC50 [3]: 4.72 µM (inconclusive)

O=C1CN(CC(=O)N2CCCCC2)c2ccccc2O1
CC50 [1]: 38.6 µM (active)

Brc1ccc(Oc2nnnn2-c2ccccc2)cc1
IC50 (Protein skinhead-1): 35.1 µM (active)

COc1ccc(N2CCN(C(CNS(=O)(=O)c3ccc(C)cc3)c3ccccc3)CC2)cc1 (centres undefined)
IC50 (Nonstructural protein 1): > 100 µM (active)

CC(C)(C)c1ccc(NC(=O)C2=CN3CCS(=O)(=O)N=C3C=C2)cc1
IC50 [5]: 5.24 µM (active) | IC50 [6]: 8.51 µM (active)

COc1ccc2cc(/C=C/C(=O)N3CCN(CC(=O)N4CCCCCC4)CC3)ccc2c1
EC50 [7]: > 260 µM (inactive)

O=C(CSC1=NCCS1)NC1CCCCC1
IC50 [5]: 3.67 µM (active) | IC50 [6]: 3.76 µM (active)

O=C(CSc1nc(O)cc(-c2ccccc2)n1)Nc1ccccn1
IC50 (Leucine aminopeptidase): 8.69 µM (active)

CCOC(=O)CSC1=N/C(=C/c2ccc(-n3cncn3)cc2)C(=O)N1C(C)=O
IC50 (Prothrombin): 0.942 µM (active)

CC(=O)OCC1(C)CN(c2ccccc2)N(C(=O)c2ccc(C(C)(C)C)cc2)C1=O (centres undefined)
IC50 (Prothrombin): 18 µM (active)

COc1ccc(NC(=O)C(=O)N2N=C3CCCCC3C2(O)C(F)(F)F)cc1 (centres undefined)
IC50 [5]: 6.08 µM (active) | IC50 [6]: 6.97 µM (active)

Cc1c(NC(=O)c2cc(-n3cnnc3)ccc2Cl)cccc1-c1nc2ccccc2o1
IC50 [5]: 2.56 µM (active) | IC50 [6]: 2.65 µM (active)

CO[C@H]1CN(C)C(=O)c2cc(NC(=O)C3CCOCC3)ccc2OC[C@H](C)N(Cc2nccs2)C[C@H]1C
AC50 [8]: 24.9 µM (active) | AC50 [9]: 43.3 µM (active)

O=C1N(c2ccccc2)CCN1c1ccccc1
EC50 [7]: > 260 µM (inconclusive)

O=C(O)CSCC(=O)NCc1cccc(C(F)(F)F)c1
IC50 (Prothrombin): > 50 µM (not active)

Cn1c(Cc2ccccc2)nnc1SCCC(=O)Nc1ccccc1
IC50 [5]: 2.03 µM (active) | IC50 [6]: 4.55 µM (active)

C[n+]1cccc(C(=O)NCC2CCCO2)c1 (centres undefined)
IC50 [5]: 2.55 µM (active) | IC50 [6]: 4.44 µM (active)

CCOC(=O)CNC(=O)C1(NC(=O)CNC(=O)OCc2ccccc2)CCCC1 (Cbz-Gly-[Ac5c]-Gly-OEt)
AC50 [10]: 49.2 µM (active)

Cc1ccc(-c2nn(-c3cc(Cl)ccc3[N+](=O)[O-])c(=O)c3ccccc23)cc1
EC50 [7]: > 260 µM (inactive)

Cn1cc(/C=N/NC(=O)c2cc3cc(Br)ccc3o2)c2ccccc21
IC50 [5]: 3.98 µM (active) | IC50 [6]: 39.3 µM (active)

Cc1cc(NC(=O)Cc2ccsc2)ccc1Br
IC50 (Protein skinhead-1): > 100 µM (inactive)

Cn1cccc1C(=O)OCC(=O)NCCc1ccc(S(N)(=O)=O)cc1
AC50 [8]: 7.13 µM (active) | AC50 [9]: > 70 µM (inactive)

O=C(CC(=O)N/N=C/c1ccc(O)cc1)N/N=C/c1ccc(O)cc1
IC50 (Large T antigen): 13.8 µM (active) | AC50 [4]: 1.15 µM (active)

Cc1ccc(S(=O)(=O)N2CC(O)C[C@H]2C(=O)OCC(=O)Nc2ccc(N3CCCCC3)cc2)cc1C (some centres undefined)
IC50 (Nonstructural protein 1): 62.8 µM (active)

COC(c1ccccc1)c1nnc(CCC(=O)N(C)Cc2cccc(-n3cccn3)c2)o1 (centres undefined)
IC50 (Prothrombin): > 50 µM (not active)

O=C(C1CCCCC1)N1CCN(S(=O)(=O)c2ccc(Cl)cc2)CC1
IC50 (Protein skinhead-1): > 100 µM (inactive)

COc1ccc(-c2c(C)nn3c(NC4CCCC4)cc(C)nc23)cc1OC
EC50 [7]: > 260 µM (inactive)

CC1(c2ccccc2)CC2CC(c3ccccc3)N1O2 (centres undefined)
EC50 [7]: > 260 µM (inactive)

COCc1cc(C)nc(N2CCN(Cc3ccccc3)CC2)c1C#N
IC50 [5]: 3.15 µM (active) | IC50 [6]: 3.55 µM (active)

CC(C)(C)[C@@H]1COC(=O)[C@@H](NC(=O)OCC2c3ccccc3-c3ccccc32)C/C=C\C[C@@H](CC(=O)NCCO)C(=O)N1
AC50 [10]: 26.3 µM (active) | AC50 [11]: 22.1 µM (active)

O=C(CCn1c(=O)c2cccn2c2cccnc21)N1CCN(c2cccc(Cl)c2)CC1
CC50 [1]: > 40 µM (active)
